Experimental data from ChEMBL document CHEMBL5506024, “Multitarget μ-Opioid Receptor Agonists─Neuropeptide FF Receptor Antagonists Induce Potent Antinociception with Reduced Adverse Side Effects” (J Med Chem, 2024).
Active and inactive are the calls of the source.

Assays:
[1] = Induction of motor coordination impairment in C57BL/6 mouse at 20 mg/kg, sc by rotarod assay; format: toxicity, organism-based; conditions: in vivo
Mu-type opioid receptor [2] = biological target: T1, Mu-type opioid receptor (Homo sapiens, UniProt P35372); assay: Agonist activity at human Rluc8-tagged MOP expressed in HEK293 cells coexpressing eYFP-tagged beta-arrestin-2 assessed as beta-arrestin-2 recruitment incubated for 5 mins by luminometer analysis relative to control; format: functional, cell-based
Mu-type opioid receptor [3] = biological target: T1, Mu-type opioid receptor; assay: Agonist activity at human Rluc8-tagged MOP expressed in HEK293 cells coexpressing eYFP-tagged beta-arrestin-2 assessed as beta-arrestin-2 recruitment incubated for 5 mins by luminometer analysis; format: functional, cell-based; conditions: read-out: EC50
[4] = Half life in mouse at 10 mg/kg, sc measured upto 24 hrs by LC-MS/MS analysis; format: ADME, organism-based; conditions: in vivo
[5] = Cmax in mouse at 10 mg/kg, sc measured upto 24 hrs by LC-MS/MS analysis; format: ADME, organism-based; conditions: in vivo
[6] = Induction of naltrexone-precipitated withdrawal syndrome in sc dosed C57BL/6N mouse assessed as paw tremor administered for 8 days followed by naltrexone addition on day 9 after 2 hrs post last dose and measured after 30 mins; format: toxicity, organism-based; conditions: in vivo, 216.5 h, time 12990 min
Mu-type opioid receptor [7] = biological target: T1, Mu-type opioid receptor; assay: Agonist activity at human MOP expressed in HEK293 cells coexpressing GloSensor-20F assessed as inhibition of forskolin-induced cAMP accumulation relative to control; format: functional, cell-based; conditions: filed as agonist
Mus musculus [8] = assay: Antinociceptive activity in mouse at 4.2 umol/kg, sc administered chronically and measured on day 8; format: functional, organism-based; conditions: dose 4.2 µmol/kg
[9] = biological target: KiSS-1 receptor (Homo sapiens) (UniProt Q969F8); assay: Agonist activity at human GPR54 expressed in CHO cells assessed as intracellular calcium release upto 10 uM by Fluo-4 AM dye based calcium mobilization assay; format: functional, cell-based
[10] = Tmax in mouse at 10 mg/kg, sc measured upto 24 hrs by LC-MS/MS analysis; format: ADME, organism-based; conditions: in vivo
[11] = biological target: T2, Neuropeptide FF receptor 1 (Homo sapiens, UniProt Q9GZQ6); assay: Antagonist potency at human NPFFR1 expressed in CHO cell membrane assessed as inhibition of NPVF induced cAMP response incubated for 1 hr by Topcount counting method; format: functional, cell membranes; conditions: read-out: pA2 (converted)
[12] = biological target: T3, Pyroglutamylated RF-amide peptide receptor (Homo sapiens) (UniProt Q96P65); assay: Antagonist activity at human GPR103 expressed in CHO cells assessed as intracellular calcium release upto 10 uM by Fluo-4 AM dye based calcium mobilization assay; format: functional, cell-based
T3 sequence (whole entry): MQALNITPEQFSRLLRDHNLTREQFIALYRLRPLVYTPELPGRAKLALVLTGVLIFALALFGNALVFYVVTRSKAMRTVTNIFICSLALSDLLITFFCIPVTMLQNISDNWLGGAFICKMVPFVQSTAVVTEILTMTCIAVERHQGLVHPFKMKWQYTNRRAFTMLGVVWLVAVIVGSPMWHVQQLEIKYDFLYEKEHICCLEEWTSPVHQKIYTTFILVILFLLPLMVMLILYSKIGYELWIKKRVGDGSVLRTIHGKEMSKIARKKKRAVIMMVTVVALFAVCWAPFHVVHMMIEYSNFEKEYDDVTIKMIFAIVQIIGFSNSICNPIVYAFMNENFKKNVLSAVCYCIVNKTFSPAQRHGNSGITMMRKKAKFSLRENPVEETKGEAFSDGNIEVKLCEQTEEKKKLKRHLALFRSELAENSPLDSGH

Mus musculus [13] = assay: Antinociceptive activity in mouse at 2.5 to 10 mg/kg, sc measured after 6 hrs by tail immersion test; format: functional, organism-based; conditions: dose 2.5-10 mg/kg
[14] = Drug concentration in mouse plasma at 10 mg/kg, sc measured after 2 hrs by LC-MS/MS analysis; format: ADME, organism-based
Mus musculus [15] = assay: Antinociceptive activity in mouse at 4.2 umol/kg, sc administered chronically and measured on day 1; format: functional, organism-based; conditions: dose 4.2 µmol/kg
[16] = biological target: T4, Neuropeptide FF receptor 2 (Homo sapiens, UniProt Q9Y5X5); assay: Antagonist activity at human NPFFR2 expressed in CHO cell membrane assessed as inhibition of NPVF induced cAMP response at 5 uM incubated for 1 hr by Topcount counting method relative to control; format: functional, cell membranes; design: scale not given: the % may be the effect or the level left; conditions: filed as antagonist
Mus musculus [17] = assay: Antinociceptive activity in mouse at 4.2 umol/kg, sc administered daily and measured on day 1 and 8; format: functional, organism-based; conditions: dose 4.2 µmol/kg
Mu-type opioid receptor [18] = biological target: T1, Mu-type opioid receptor; assay: Agonist activity at human MOP expressed in HEK293 cells coexpressing GloSensor-20F assessed as inhibition of forskolin-induced cAMP accumulation; format: functional, cell-based
[19] = Induction of naltrexone-precipitated withdrawal syndrome in sc dosed C57BL/6N mouse assessed as diarrhea administered for 8 days followed by naltrexone addition on day 9 after 2 hrs post last dose and measured after 30 mins; format: toxicity, organism-based; conditions: in vivo, 216.5 h, time 12990 min
[20] = biological target: T5, Prolactin-releasing peptide receptor (Homo sapiens) (UniProt P49683); assay: Antagonist activity at human GPR10 expressed in CHO cells assessed as intracellular calcium release upto 10 uM by Fluo-4 AM dye based calcium mobilization assay; format: functional, cell-based
T5 sequence (whole entry): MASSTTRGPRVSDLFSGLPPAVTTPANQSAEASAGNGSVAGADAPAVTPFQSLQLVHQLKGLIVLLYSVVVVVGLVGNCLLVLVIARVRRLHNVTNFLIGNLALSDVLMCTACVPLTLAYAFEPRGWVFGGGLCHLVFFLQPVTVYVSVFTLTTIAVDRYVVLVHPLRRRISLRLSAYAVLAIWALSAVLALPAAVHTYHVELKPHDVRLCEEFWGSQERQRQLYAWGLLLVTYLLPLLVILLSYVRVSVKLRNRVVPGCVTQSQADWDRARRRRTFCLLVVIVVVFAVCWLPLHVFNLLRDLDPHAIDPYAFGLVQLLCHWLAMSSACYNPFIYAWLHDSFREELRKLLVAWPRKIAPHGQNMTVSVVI

[21] = biological target: T4, Neuropeptide FF receptor 2; assay: Displacement of [125I]-1DMeNPFF from human NPFFR2 expressed in CHO cell membrane at 0.05 uM incubated for 1 hr by Topcount counting method relative to control; format: cell membranes; conditions: filed as antagonist
[22] = biological target: T2, Neuropeptide FF receptor 1; assay: Displacement of [125I]-1DMeNPFF from human NPFFR1 expressed in CHO cell membrane incubated for 1 hr by Topcount counting method; format: cell membranes
[23] = biological target: T5, Prolactin-releasing peptide receptor (Homo sapiens); assay: Agonist activity at human GPR10 expressed in CHO cells assessed as intracellular calcium release upto 10 uM by Fluo-4 AM dye based calcium mobilization assay; format: functional, cell-based
[24] = biological target: T3, Pyroglutamylated RF-amide peptide receptor (Homo sapiens); assay: Agonist activity at human GPR103 expressed in CHO cells assessed as intracellular calcium release upto 10 uM by Fluo-4 AM dye based calcium mobilization assay; format: functional, cell-based
[25] = biological target: Delta-type opioid receptor (Homo sapiens) (UniProt P41143); assay: Agonist activity at human DOP expressed in HEK293 cells assessed as inhibition of forskolin-induced cAMP accumulation; format: functional, cell-based; conditions: filed as agonist
[26] = biological target: KiSS-1 receptor (Homo sapiens) (UniProt Q969F8); assay: Antagonist activity at human GPR54 expressed in CHO cells assessed as intracellular calcium release upto 10 uM by Fluo-4 AM dye based calcium mobilization assay; format: functional, cell-based
[27] = biological target: Nociceptin receptor (Homo sapiens) (UniProt P41146); assay: Antagonist activity at human NOR expressed in HEK293 cells assessed as forskolin-induced cAMP accumulation in presence of IBMX; format: functional, cell-based; conditions: filed as antagonist
[28] = Induction of naltrexone-precipitated withdrawal syndrome in sc dosed C57BL/6N mouse assessed as high jumping score administered for 8 days followed by naltrexone addition on day 9 after 2 hrs post last dose and measured after 30 mins; format: toxicity, organism-based; conditions: in vivo, 216.5 h, time 12990 min
[29] = biological target: T2, Neuropeptide FF receptor 1; assay: Displacement of [125I]-1DMeNPFF from human NPFFR1 expressed in CHO cell membrane at 0.5 uM incubated for 1 hr by Topcount counting method relative to control; format: cell membranes; conditions: filed as antagonist
[30] = Induction of naltrexone-precipitated withdrawal syndrome in sc dosed C57BL/6N mouse assessed as wet dog shake counts administered for 8 days followed by naltrexone addition on day 9 after 2 hrs post last dose and measured after 30 mins; format: toxicity, organism-based; conditions: in vivo, 216.5 h, time 12990 min
[31] = biological target: T2, Neuropeptide FF receptor 1; assay: Antagonist activity at human NPFFR1 expressed in CHO cell membrane assessed as inhibition of NPVF induced cAMP response at 5 uM incubated for 1 hr by Topcount counting method relative to control; format: functional, cell membranes; design: scale not given: the % may be the effect or the level left; conditions: filed as antagonist
[32] = Toxicity in C57BL/6N mouse assessed as induction of respiratory depression by measuring decrease in pulmonary rate at 4 to 36 mg/kg, sc by plethysmography; format: organism-based; conditions: in vivo, dose 4-36 mg/kg
[33] = Induction of motor coordination impairment in C57BL/6 mouse at 12 mg/kg, sc by rotarod assay; format: toxicity, organism-based; conditions: in vivo
[34] = biological target: Kappa-type opioid receptor (Homo sapiens, UniProt P41145); assay: Antagonist activity at human KOR expressed in HEK293 cells assessed as forskolin-induced cAMP accumulation in presence of IBMX; format: functional, cell-based; conditions: read-out: pA2 (converted)
[35] = biological target: T4, Neuropeptide FF receptor 2; assay: Antagonist potency at human NPFFR2 expressed in CHO cell membrane assessed as inhibition of NPVF induced cAMP response incubated for 1 hr by Topcount counting method; format: functional, cell membranes; conditions: read-out: pA2 (converted)
[36] = biological target: T4, Neuropeptide FF receptor 2; assay: Displacement of [125I]-1DMeNPFF from human NPFFR2 expressed in CHO cell membrane incubated for 1 hr by Topcount counting method; format: cell membranes
Mus musculus [37] = assay: Antinociceptive activity in mouse at 4.2 umol/kg, sc measured after 6 hrs in presence of naloxone methiodide by tail immersion test; format: functional, organism-based; conditions: dose 4.2 µmol/kg
Mus musculus [38] = assay: Antinociceptive activity in mouse at 10 mg/kg, sc administered daily and measured on day 8; format: functional, organism-based
[39] = Toxicity in sc dosed C57BL/6N mouse assessed as induction of respiratory depression by measuring decrease in pulmonary rate by plethysmography; format: organism-based; conditions: in vivo
Mus musculus [40] = assay: Antinociceptive activity in mouse assessed as basal nociceptive threshold at 10 mg/kg, sc administered daily and measured on day 2 to 7; format: functional, organism-based
[41] = Induction of naltrexone-precipitated withdrawal syndrome in sc dosed C57BL/6N mouse assessed as vegetative signs administered for 8 days followed by naltrexone addition on day 9 after 2 hrs post last dose and measured after 30 mins; format: toxicity, organism-based; conditions: in vivo, 216.5 h, time 12990 min
Mus musculus [42] = assay: Antinociceptive activity in mouse at 10 mg/kg, sc measured after 6 hrs in presence of naloxone methiodide by tail immersion test; format: functional, organism-based
[43] = Induction of naltrexone-precipitated withdrawal syndrome in sc dosed C57BL/6N mouse assessed as somatic signs administered for 8 days followed by naltrexone addition on day 9 after 2 hrs post last dose and measured after 30 mins; format: toxicity, organism-based; conditions: in vivo, 216.5 h, time 12990 min

T4 sequence (Q9Y5X5 whole entry): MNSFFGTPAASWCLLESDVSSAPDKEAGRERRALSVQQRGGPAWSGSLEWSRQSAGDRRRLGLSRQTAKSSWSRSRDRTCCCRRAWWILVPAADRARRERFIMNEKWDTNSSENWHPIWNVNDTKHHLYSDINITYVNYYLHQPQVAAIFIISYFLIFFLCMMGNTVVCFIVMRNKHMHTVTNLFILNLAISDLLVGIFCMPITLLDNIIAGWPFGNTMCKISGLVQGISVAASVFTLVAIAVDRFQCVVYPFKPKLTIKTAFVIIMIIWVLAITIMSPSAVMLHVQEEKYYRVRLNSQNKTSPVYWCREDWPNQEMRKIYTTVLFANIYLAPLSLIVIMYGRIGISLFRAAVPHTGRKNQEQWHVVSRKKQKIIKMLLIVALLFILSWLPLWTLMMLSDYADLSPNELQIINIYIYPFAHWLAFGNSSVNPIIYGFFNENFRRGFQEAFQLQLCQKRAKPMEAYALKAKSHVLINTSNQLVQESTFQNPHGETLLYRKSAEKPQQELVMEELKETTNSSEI
T1 sequence (P35372 whole entry): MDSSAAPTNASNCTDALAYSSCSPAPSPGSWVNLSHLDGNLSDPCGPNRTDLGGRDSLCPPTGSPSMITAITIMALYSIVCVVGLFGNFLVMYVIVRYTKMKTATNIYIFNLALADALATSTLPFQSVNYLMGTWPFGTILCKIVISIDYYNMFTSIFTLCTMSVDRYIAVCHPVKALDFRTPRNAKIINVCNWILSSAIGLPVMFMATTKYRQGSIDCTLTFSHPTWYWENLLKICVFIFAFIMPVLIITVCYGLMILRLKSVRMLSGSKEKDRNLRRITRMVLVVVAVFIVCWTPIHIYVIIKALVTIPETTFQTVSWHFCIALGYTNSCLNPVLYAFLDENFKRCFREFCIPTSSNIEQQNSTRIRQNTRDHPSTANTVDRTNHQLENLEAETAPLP
T2 sequence (Q9GZQ6 whole entry): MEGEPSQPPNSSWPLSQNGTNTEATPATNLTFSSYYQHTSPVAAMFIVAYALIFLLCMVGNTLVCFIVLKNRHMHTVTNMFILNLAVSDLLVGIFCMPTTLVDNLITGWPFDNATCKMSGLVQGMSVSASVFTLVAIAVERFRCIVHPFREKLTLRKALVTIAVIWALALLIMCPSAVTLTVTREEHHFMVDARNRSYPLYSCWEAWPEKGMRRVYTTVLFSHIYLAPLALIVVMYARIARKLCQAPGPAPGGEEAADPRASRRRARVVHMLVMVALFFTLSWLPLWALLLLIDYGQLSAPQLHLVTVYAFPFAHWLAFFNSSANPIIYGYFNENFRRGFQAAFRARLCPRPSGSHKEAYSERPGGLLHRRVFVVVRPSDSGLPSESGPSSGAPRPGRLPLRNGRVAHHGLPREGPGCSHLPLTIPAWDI
Chain of KiSS-1 receptor (Homo sapiens) (Q969F8 whole entry): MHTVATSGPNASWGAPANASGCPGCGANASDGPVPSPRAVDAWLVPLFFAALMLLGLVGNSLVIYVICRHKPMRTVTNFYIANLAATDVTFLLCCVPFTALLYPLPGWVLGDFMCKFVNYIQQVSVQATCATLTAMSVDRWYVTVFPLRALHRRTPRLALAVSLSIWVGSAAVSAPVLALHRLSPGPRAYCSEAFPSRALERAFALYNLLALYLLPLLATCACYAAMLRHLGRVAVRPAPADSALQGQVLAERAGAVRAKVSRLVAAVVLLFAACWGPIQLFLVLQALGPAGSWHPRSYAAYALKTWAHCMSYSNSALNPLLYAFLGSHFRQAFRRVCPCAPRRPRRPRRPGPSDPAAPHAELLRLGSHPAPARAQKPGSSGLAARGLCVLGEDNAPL
Chain of Delta-type opioid receptor (Homo sapiens) (P41143 whole entry): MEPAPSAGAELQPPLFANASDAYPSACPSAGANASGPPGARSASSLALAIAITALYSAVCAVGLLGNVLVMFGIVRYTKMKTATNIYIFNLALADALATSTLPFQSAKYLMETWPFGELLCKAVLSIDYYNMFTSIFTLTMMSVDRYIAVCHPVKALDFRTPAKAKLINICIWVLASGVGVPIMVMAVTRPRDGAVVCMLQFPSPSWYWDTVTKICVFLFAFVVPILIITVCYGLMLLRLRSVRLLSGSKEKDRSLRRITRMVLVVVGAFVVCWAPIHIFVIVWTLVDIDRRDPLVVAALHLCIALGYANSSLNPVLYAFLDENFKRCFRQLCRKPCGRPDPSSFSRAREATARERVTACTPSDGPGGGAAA
Chain of Kappa-type opioid receptor (P41145 whole entry): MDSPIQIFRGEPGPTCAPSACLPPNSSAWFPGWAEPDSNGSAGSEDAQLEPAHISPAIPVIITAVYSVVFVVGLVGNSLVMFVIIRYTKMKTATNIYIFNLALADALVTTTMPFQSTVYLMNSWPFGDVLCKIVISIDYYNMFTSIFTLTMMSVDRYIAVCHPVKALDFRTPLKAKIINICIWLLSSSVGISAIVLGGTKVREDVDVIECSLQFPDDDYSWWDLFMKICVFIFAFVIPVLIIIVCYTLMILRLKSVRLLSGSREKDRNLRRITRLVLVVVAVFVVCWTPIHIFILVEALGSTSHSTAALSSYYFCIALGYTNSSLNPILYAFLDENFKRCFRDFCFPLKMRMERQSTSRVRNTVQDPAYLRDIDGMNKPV
Chain of Nociceptin receptor (Homo sapiens) (P41146 whole entry): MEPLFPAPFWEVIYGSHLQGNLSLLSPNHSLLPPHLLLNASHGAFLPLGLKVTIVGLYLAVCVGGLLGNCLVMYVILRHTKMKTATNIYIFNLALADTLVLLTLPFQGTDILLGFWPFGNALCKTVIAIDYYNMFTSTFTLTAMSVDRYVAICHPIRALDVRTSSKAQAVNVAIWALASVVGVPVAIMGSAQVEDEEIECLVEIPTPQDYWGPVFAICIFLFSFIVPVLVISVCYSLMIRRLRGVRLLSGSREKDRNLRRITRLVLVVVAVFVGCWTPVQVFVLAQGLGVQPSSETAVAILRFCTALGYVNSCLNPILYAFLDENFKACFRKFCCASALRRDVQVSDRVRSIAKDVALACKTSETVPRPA

CN(C)CCC=C1c2ccccc2CCc2ccccc21 [AMITRIPTYLINE]
Activity [1]: Toxic

Cc1cc(O)cc(C)c1C[C@H](NC(=N)N)C(=O)N[C@H](CCCNC(=N)N)C(=O)N[C@H]1Cc2ccccc2CN(CCC(=O)N[C@@H](CCCN2CCC(Cc3ccccc3)CC2)C(=O)N[C@@H](Cc2ccccc2)C(N)=O)C1=O
Emax (Mu-type opioid receptor [2]): 15% | EC50 (Mu-type opioid receptor [3]): 119 nM | half-life [4]: 3.1 h | Cmax [5]: 887 nM | Activity [6]: Non-Toxic | Emax (Mu-type opioid receptor [7]): 66% | Activity (Mus musculus [8]): inactive | Activity [9]: inactive | Tmax [10]: 1.67 h | Kb [11]: 240 nM | Activity [12]: inactive | Activity (Mus musculus [13]): Active | concentration at 2 h [14]: 593 nM | Activity (Mus musculus [15]): Active | Activity [16]: 71% | Activity (Mus musculus [17]): Active | EC50 (Mu-type opioid receptor [18]): 9.9 nM | Activity [19]: Non-Toxic | Activity [20]: inactive | Activity [21]: 91% | Ki [22]: 75 nM | Activity [23]: inactive | Activity [24]: inactive | Activity [25]: Active | Activity [26]: inactive | Activity [27]: Active | Activity [28]: Toxic | Activity [29]: 93% | Activity [30]: Non-Toxic | Activity [31]: 65% | Activity [32]: Non-Toxic | Activity [33]: Non-Toxic | Kb [34]: 0.331 nM | Kb [35]: 110 nM | Ki [36]: 4.7 nM

CN1CC[C@]23c4c5ccc(O)c4O[C@H]2[C@@H](O)C=C[C@H]3[C@H]1C5 [MORPHINE]
Activity (Mus musculus [37]): inactive | Activity (Mus musculus [38]): inactive | Activity [39]: Dose-Dependent Effect | Activity (Mus musculus [40]): inactive | Activity [41]: Toxic | Activity (Mus musculus [42]): inactive | Activity [43]: Toxic
